{"source": "patent US20260062443A1", "about": "(ALEXION PHARMACEUTICALS, INC., priority 2022, published 2026)", "note": "pIC50: −log10 of the molar value."}
{"biological_target": "T1, Human complement C1s enzyme (Homo sapiens, UniProt P09871)", "T1 sequence (P09871 438-688 limits assumed)": "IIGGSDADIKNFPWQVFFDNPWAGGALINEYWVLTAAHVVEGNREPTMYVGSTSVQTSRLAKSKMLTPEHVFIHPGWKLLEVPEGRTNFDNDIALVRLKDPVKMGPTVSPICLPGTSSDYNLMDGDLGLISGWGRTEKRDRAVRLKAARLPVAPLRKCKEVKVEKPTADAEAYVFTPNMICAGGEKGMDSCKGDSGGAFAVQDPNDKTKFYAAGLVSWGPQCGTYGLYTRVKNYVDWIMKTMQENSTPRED", "T1 sequence (P09871 16-437 partner limits assumed)": "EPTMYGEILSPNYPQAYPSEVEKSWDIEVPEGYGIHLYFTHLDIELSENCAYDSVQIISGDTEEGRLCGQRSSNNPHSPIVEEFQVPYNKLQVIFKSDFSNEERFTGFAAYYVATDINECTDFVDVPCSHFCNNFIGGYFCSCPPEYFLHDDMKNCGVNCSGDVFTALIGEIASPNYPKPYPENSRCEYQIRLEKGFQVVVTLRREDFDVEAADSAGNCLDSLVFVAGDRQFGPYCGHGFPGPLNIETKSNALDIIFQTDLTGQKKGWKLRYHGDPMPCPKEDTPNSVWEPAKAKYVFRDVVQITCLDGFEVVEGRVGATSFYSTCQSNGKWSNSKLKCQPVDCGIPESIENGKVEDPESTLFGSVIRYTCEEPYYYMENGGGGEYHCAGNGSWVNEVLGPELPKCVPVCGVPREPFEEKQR", "assay": "Human C1s enzyme assay", "format": "biochemical", "conditions": "human complement C1s enzyme 1.16 nM, substrate Z-L-Lys-SBzl 100 μM, 5 min preincubation; read-out: IC50 (Stars), C1s Inhibiting Activity", "method_in_brief": "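IC50 from nonlinear regression of reaction rates versus compound concentration, with rates taken from A405 recorded at 30 s intervals over 30 min after adding 100 μM Z-L-Lys-SBzl plus 100 μM DTNB. Enzyme was human C1s purified from serum, 1.16 nM, given 5 min compound preincubation at room temperature, pH 7.5 Tris/1 M NaCl.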"}
{"smiles": "Cc1cccc2c1oc1ccc(C(=O)NCC(=O)N3CCC[C@H]3C(=O)NCc3cc4cnccc4[nH]3)cc12", "note": "[Compound 336, (S)-N-((1H-pyrrolo[3,2-c]pyridin-2-yl)methyl)-1-((6-methyldibenzo[b,d]furan-2-carbonyl)glycyl)pyrrolidine-2-carboxamide]", "pIC50": "> 7.00"}
{"smiles": "Nc1noc2cc(CNC(=O)[C@@H]3C[C@@H](OC(F)F)CN3C(=O)CNC(=O)c3ccc4c(c3)Oc3ccccc3S4)ccc12", "note": "[Compound 232, (2S,4R)-N-((3-aminobenzo[d]isoxazol-6-yl)methyl)-4-(difluoromethoxy)-1-((phenoxathiine-3-carbonyl)glycyl)pyrrolidine-2-carboxamide]", "pIC50": "< 6.00"}
{"smiles": "C[C@@H](NC(=O)[C@@H]1C[C@@H](S(C)(=O)=O)CN1C(=O)CNC(=O)c1ccc(Oc2ccc(F)cc2)cc1)c1cc2cnccc2[nH]1", "note": "[Compound 87, (2S,4R)-N-((R)-1-(1H-pyrrolo[3,2-c]pyridin-2-yl)ethyl)-1-((4-(4-fluorophenoxy)benzoyl)glycyl)-4-(methylsulfonyl)pyrrolidine-2-carboxamide]", "pIC50": "6.00 to 7.00"}
{"smiles": "C[C@@H](NC(=O)[C@@H]1C[C@@H](S(=O)(=O)C2CC2)CN1C(=O)CNC(=O)c1ccc2c(c1)Oc1ccccc1S2)c1cc2cnccc2[nH]1", "note": "[Compound 174, (2S,4R)-N-((R)-1-(1H-pyrrolo[3,2-c]pyridin-2-yl)ethyl)-4-(cyclopropylsulfonyl)-1-((phenoxathiine-3-carbonyl)glycyl)pyrrolidine-2-carboxamide]", "pIC50": "> 7.00"}
{"smiles": "O=C(NCC(=O)N1C[C@H](OC(F)F)C[C@H]1C(=O)NCc1cc2cnccc2[nH]1)c1ccc2c(c1)OCCS2", "note": "[Compound 356, (2S,4R)-N-((1H-pyrrolo[3,2-c]pyridin-2-yl)methyl)-4-(difluoromethoxy)-1-((2,3-dihydrobenzo[b][1,4]oxathiine-7-carbonyl)glycyl)pyrrolidine-2-carboxamide]", "pIC50": "> 7.00"}
{"smiles": "Cc1ccc(Oc2cccc(C(=O)NCC(=O)N3C[C@H](S(C)(=O)=O)C[C@H]3C(=O)NCc3cc4cnccc4[nH]3)c2)c(F)c1", "note": "[Compound 309, (2S,4R)-N-((1H-pyrrolo[3,2-c]pyridin-2-yl)methyl)-1-((3-(2-fluoro-4-methylphenoxy)benzoyl)glycyl)-4-(methylsulfonyl) pyrrolidine-2-carboxamide]", "pIC50": "> 7.00"}
{"smiles": "Cc1ccc(Oc2cccc(C(=O)NCC(=O)N3C[C@H](OC(F)F)C[C@H]3C(=O)NCc3cc4cnccc4[nH]3)c2)s1", "note": "[Compound 366, (2S,4R)-N-((1H-pyrrolo[3,2-c]pyridin-2-yl)methyl)-4-(difluoromethoxy)-1-((3-((5-methylthiophen-2-yl)oxy)benzoyl)glycyl)pyrrolidine-2-carboxamide]", "pIC50": "> 7.00"}
{"smiles": "O=C(NCC(=O)N1CC2(C[C@H]1C(=O)NCc1cc3cnccc3[nH]1)OCCO2)c1ccc(-c2ccc(F)cc2F)cc1", "note": "[Compound 117, (S)-N-((1H-pyrrolo[3,2-c]pyridin-2-yl)methyl)-7-((2′,4′-difluoro-[1,1′-biphenyl]-4-carbonyl)glycyl)-1,4-dioxa-7-azaspiro[4.4]nonane-8-carboxamide]", "pIC50": "6.00 to 7.00"}
{"smiles": "CS(=O)(=O)[C@@H]1C[C@@H](C(=O)NCc2cc3cnccc3[nH]2)N(C(=O)CNC(=O)c2ccc3c(c2)Oc2ccccc2S3)C1", "note": "[Compound 27, (2S,4R)-N-((1H-pyrrolo[3,2-c]pyridin-2-yl)methyl)-4-(methylsulfonyl)-1-((phenoxathiine-3-carbonyl)glycyl)pyrrolidine-2-carboxamide]", "pIC50": "> 7.00"}
{"smiles": "C[C@@H](NC(=O)[C@@H]1CC2(CN1C(=O)CNC(=O)c1ccc3c(c1)Oc1ccccc1S3)OCCO2)c1cc2cnccc2s1", "note": "[Compound 206, (S)-7-((phenoxathiine-3-carbonyl)glycyl)-N-((R)-1-(thieno[3,2-c]pyridin-2-yl)ethyl)-1,4-dioxa-7-azaspiro[4.4]nonane-8-carboxamide]", "pIC50": "> 7.00"}
{"smiles": "O=C(NCC(=O)N1C[C@H](OC(F)F)C[C@H]1C(=O)NCc1cc2cnccc2[nH]1)c1ccccc1Oc1ccccc1", "note": "[Compound 239, (2S,4R)-N-((1H-pyrrolo[3,2-c]pyridin-2-yl)methyl)-4-(difluoromethoxy)-1-((2-phenoxybenzoyl)glycyl)pyrrolidine-2-carboxamide]", "pIC50": "< 6.00"}
{"smiles": "C[C@H](NC(=O)[C@@H]1CC2(CN1C(=O)CNC(=O)c1ccc3c(c1)-c1ccccc1C3(F)F)OCCO2)c1cc2cnccc2[nH]1", "note": "[Compound 23, (S)-N-((S)-1-(1H-pyrrolo[3,2-c]pyridin-2-yl)ethyl)-7-((9,9-difluoro-9H-fluorene-3-carbonyl)glycyl)-1,4-dioxa-7-azaspiro[4.4]nonane-8-carboxamide]", "pIC50": "< 6.00"}
{"smiles": "CN1CCc2sc(CNC(=O)[C@@H]3C[C@@H](OC(F)F)CN3C(=O)CNC(=O)c3ccc4c(c3)Oc3ccccc3S4)cc2C1", "note": "[Compound 347, (2S,4R)-4-(difluoromethoxy)-N-((5-methyl-4,5,6,7-tetrahydrothieno[3,2-c]pyridin-2-yl)methyl)-1-((phenoxathiine-3-carbonyl)glycyl) pyrrolidine-2-carboxamide]", "pIC50": "< 6.00"}
{"smiles": "O=C(NCC(=O)N1C[C@H](OC(F)F)C[C@H]1C(=O)NCc1cc2cnccn2c1)c1cccc(Oc2ccccc2)c1", "note": "[Compound 270, (2S,4R)-4-(difluoromethoxy)-1-((3-phenoxybenzoyl)glycyl)-N-(pyrrolo[1,2-a]pyrazin-7-ylmethyl)pyrrolidine-2-carboxamide]", "pIC50": "> 7.00"}
{"smiles": "Cn1c(C2(NC(=O)[C@@H]3C[C@]4(C)C[C@@H]4N3C(=O)CNC(=O)CCCOc3ccccc3)CC2)nc2ccncc21", "note": "[Compound 65, (1S,3S,5S)-5-methyl-N-(1-(3-methyl-3H-imidazo[4,5-c]pyridin-2-yl)cyclopropyl)-2-((4-phenoxybutanoyl)glycyl)-2-azabicyclo[3.1.0]hexane-3-carboxamide]", "pIC50": "< 6.00"}
{"smiles": "C[C@@]12C[C@@H]1N(C(=O)CNC(=O)c1cccc(Oc3ccc(F)cc3)c1)[C@H](C(=O)NCc1cc3cnccc3s1)C2", "note": "[Compound 252, (1S,3S,5S)-2-((3-(4-fluorophenoxy)benzoyl)glycyl)-5-methyl-N-(thieno[3,2-c]pyridin-2-ylmethyl)-2-azabicyclo[3.1.0]hexane-3-carboxamide]", "pIC50": "> 7.00"}
{"smiles": "CC1(O)c2ccccc2-c2cc(C(=O)NCC(=O)N3C[C@H](OC(F)F)C[C@H]3C(=O)NCc3cc4cnccc4[nH]3)ccc21", "note": "(stereo partly drawn) [Compound 314, (2S,4R)-N-((1H-pyrrolo[3,2-c]pyridin-2-yl)methyl)-4-(difluoromethoxy)-1-((9-hydroxy-9-methyl-9H-fluorene-3-carbonyl)glycyl) pyrrolidine-2-carboxamide]", "pIC50": "> 7.00"}
{"smiles": "CS(=O)(=O)[C@@H]1C[C@@H](C(=O)NCc2cc3cnccc3[nH]2)N(C(=O)CNC(=O)c2ccc3oc4ccccc4c3c2)C1", "note": "[Compound 202, (2S,4R)-N-((1H-pyrrolo[3,2-c]pyridin-2-yl)methyl)-1-((dibenzo[b,d]furan-2-carbonyl)glycyl)-4-(methylsulfonyl)pyrrolidine-2-carboxamide]", "pIC50": "> 7.00"}
{"smiles": "Cc1ccc(Oc2ccnc(C(=O)NCC(=O)N3C[C@H](OC(F)F)C[C@H]3C(=O)NCc3cc4cnccc4[nH]3)c2)c(F)c1", "note": "[Compound 323, N-(2-((2S,4R)-2-(((1H-pyrrolo[3,2-c]pyridin-2-yl)methyl)carbamoyl)-4-(difluoromethoxy)pyrrolidin-1-yl)-2-oxoethyl)-4-(2-fluoro-4-methylphenoxy)picolinamide]", "pIC50": "> 7.00"}
{"smiles": "Cc1ccc(Oc2cccc(C(=O)NCC(=O)N3C[C@H](OC(F)F)C[C@H]3C(=O)Nc3cc4cnccc4s3)c2F)cc1", "note": "[Compound 376, (2S,4R)-4-(difluoromethoxy)-1-((2-fluoro-3-(p-tolyloxy)benzoyl)glycyl)-N-(thieno[3,2-c]pyridin-2-yl)pyrrolidine-2-carboxamide]", "pIC50": "< 6.00"}
{"smiles": "O=C(NCC(=O)N1C[C@H](OC(F)F)C[C@H]1C(=O)NCc1cc2cnccn2c1)c1ccc2c(c1)Oc1ccccc1S2", "note": "[Compound 266, (2S,4R)-4-(difluoromethoxy)-1-((phenoxathiine-3-carbonyl)glycyl)-N-(pyrrolo[1,2-a]pyrazin-7-ylmethyl)pyrrolidine-2-carboxamide]", "pIC50": "> 7.00"}
{"smiles": "C[C@@]12C[C@@H]1N(C(=O)CNC(=O)c1cccc(Oc3ccccc3)c1)[C@H](C(=O)NCc1cc3cnccc3s1)C2", "note": "[Compound 246, (1S,3S,5S)-5-methyl-2-((3-phenoxybenzoyl)glycyl)-N-(thieno[3,2-c]pyridin-2-ylmethyl)-2-azabicyclo[3.1.0]hexane-3-carboxamide]", "pIC50": "> 7.00"}
{"smiles": "C[C@@H](NC(=O)[C@@H]1C[C@@H](OC(F)F)CN1C(=O)CNC(=O)c1ccc2c(c1)-c1ccccc1C2(F)F)c1cc2cnccc2[nH]1", "note": "[Compound 77, (2S,4R)-N-((R)-1-(1H-pyrrolo[3,2-c]pyridin-2-yl)ethyl)-1-((9,9-difluoro-9H-fluorene-3-carbonyl)glycyl)-4-(difluoromethoxy)pyrrolidine-2-carboxamide]", "pIC50": "> 7.00"}
